In DBAASP one finds MIC data, which are given here for seven compounds.

Among the test systems are Candida krusei ATCC 6258; Escherichia coli UB1005; Pasteurella multocida; Klebsiella pneumoniae; Staphylococcus aureus; Aspergillus fumigatus; Bibersteinia trehalosi; Bacillus subtilis PY22; Candida albicans; Pseudomonas aeruginosa; Pseudomonas fluorescens; Ralstonia pickettii.
Holding throughout (experiment): ≥ marks a high value that may be exact or a test limit, other limits are often not marked, values filed in µg/mL are converted to µM
Test [1] has as its system Candida parapsilosis ATCC 90018.
The subject of test [2] is Candida tropicalis ATCC 750.
The test system of test [3] is Staphylococcus aureus ATCC 29213.
For test [4], the system named is Candida albicans ATCC 10231.
Test [5] concerns Escherichia coli ATCC 25922.
Test [6] concerns Pseudomonas aeruginosa ATCC 27853.
For test [7], the system named is Candida glabrata ATCC 2001.
For test [8], the system named is Pseudomonas aeruginosa H744.
Test [9] concerns Pseudomonas aeruginosa H547.
Test [10] has as its system Pseudomonas aeruginosa Z61.
Test [11] has as its system Pseudomonas aeruginosa H374.
Test [12] relates to Pseudomonas aeruginosa K799.
The subject of test [13] is Salmonella enterica subsp. enterica serovar Typhimurium ATCC 14028s.
Test [14] relates to Staphylococcus aureus ATCC BAA-1556.
Test [15] concerns Salmonella enterica subsp. arizonae.
The subject of test [16] is Mannheimia haemolytica Serovar 2.
Test [17] deals with Mannheimia haemolytica Serovar 6.
Test [18] deals with Pseudomonas aeruginosa PAO1.
For test [19], the system named is Corynebacterium pseudotuberculosis ATCC 19410.
For test [20], the system named is Mannheimia haemolytica Serovar 1.
Test [21] concerns Escherichia coli DH5alpha.
The subject of test [22] is Candida albicans TIMM 0144.
In test [23] the test system is Trichophyton mentagrophytes TIMM 1189.
For test [24], the system named is Pseudomonas aeruginosa R70.
Test [25] deals with Pseudomonas aeruginosa M1251.
Test [26] concerns Salmonella enterica serovar Typhimurium.
In test [27] the test system is Achromobacter xylosoxidans.
The subject of test [28] is Pseudomonas aeruginosa M1426.
In test [29] the test system is Pseudomonas aeruginosa M917.
In test [30] the test system is Pseudomonas aeruginosa M76.
For test [31], the system named is Stenotrophomonas maltophilia.

The structures appear in SMILES notation. ≈ marks a conversion by molar mass, not a printed value. Where “and” joins values, the source holds several entries; their conditions need not be identical. Equal values may be shown once.

Usually MIC stands for the least concentration at which growth counts as inhibited. Low values mean greater potency, high ones weaker potency.

For the compound `CC[C@H](C)[C@H](NC(=O)CN)C(=O)N[C@@H](CC(C)C)C(=O)N[C@@H](CC(=O)O)C(=O)N[C@H](C(=O)N[C@@H](CCCCN)C(=O)N[C@@H](CC(N)=O)C(=O)N[C@@H](CCCCN)C(=O)N[C@H](C(=O)N[C@@H](CO)C(=O)N[C@@H](CC(N)=O)C(=O)N[C@@H](CC(C)C)C(=O)N[C@@H](Cc1ccccc1)C(N)=O)C(C)C)[C@@H](C)CC` [GILDIKNKVSNLF], the minimum inhibitory concentration (MIC) is no less than 125 µM in test [1]; 31.2 µM (≈ 45.5 µg/mL) in test [2]; no less than 62.5 µM against Candida krusei ATCC 6258; 31.2 µM (≈ 45.5 µg/mL) in test [3]; 62.5 µM (≈ 91.2 µg/mL) in [4]; 62.5 µM (≈ 91.2 µg/mL) in test [5]. For the same compound, the MIC is 62.5 µM (≈ 91.2 µg/mL) in [6] and no less than 250 µM in test [7].
Regarding `CC[C@H](C)[C@H](NC(=O)[C@H](CC(C)C)NC(=O)[C@H](C)NC(=O)[C@@H]1CCCN1C(=O)[C@H](CC(C)C)NC(=O)CNC(=O)[C@@H](NC(=O)[C@@H](NC(=O)[C@H](CC(C)C)NC(=O)[C@@H](NC(=O)[C@H](CCCCN)NC(=O)[C@H](CO)NC(=O)CNC(=O)CNC(=O)[C@H](CCCCN)NC(=O)[C@@H](NC(=O)[C@H](CC(C)C)NC(=O)[C@H](CC(N)=O)NC(=O)[C@H](CCCCN)NC(=O)[C@@H](NC(=O)[C@H](Cc1ccccc1)NC(=O)[C@H](CCCCN)NC(=O)[C@H](CCCCN)NC(=O)[C@H](Cc1c[nH]c2ccccc12)NC(=O)[C@@H](N)CCCCN)[C@@H](C)CC)[C@@H](C)O)[C@@H](C)CC)[C@@H](C)O)[C@@H](C)O)C(=O)N[C@@H](CO)C(=O)O` [KWKKFIKNLTKGGSKILTTGLPALIS], the MIC in test [8] worked out at 1.41 µM (≈ 4 µg/mL); in [9] it was 5.63 µM (≈ 16 µg/mL); in [10] it was 6.68 µM (≈ 19 µg/mL); in test [11], 1.41 µM (≈ 4 µg/mL); in [12], 11.3 µM (≈ 32 µg/mL); in the test with Escherichia coli UB1005, 0.703 µM (≈ 2 µg/mL). Further, the MIC in test [13] stood at 5.63 µM (≈ 16 µg/mL).
Regarding `CC(C)C[C@H](NC(=O)[C@H](CC(C)C)NC(=O)[C@H](CCCCN)NC(=O)[C@H](CC(C)C)NC(=O)[C@H](CC(C)C)NC(=O)[C@H](CC(C)C)NC(=O)[C@H](CCCCN)NC(=O)[C@@H](N)CC(C)C)C(N)=O` [LKLLLKLL], in test [14], the MIC is no less than 100 µM.
Consider `CC[C@H](C)[C@H](NC(=O)[C@@H](NC(=O)[C@H](Cc1cnc[nH]1)NC(=O)[C@@H](NC(=O)[C@@H](NC(=O)[C@H](CCCCN)NC(=O)[C@H](CCCN=C(N)N)NC(=O)[C@@H](NC(=O)[C@@H](NC(=O)[C@H](CCCN=C(N)N)NC(=O)[C@@H](N)CCCN=C(N)N)[C@@H](C)CC)[C@@H](C)CC)[C@@H](C)CC)[C@@H](C)CC)[C@@H](C)CC)C(N)=O` [RRIIRKIIHII], for which the MIC in test [15] is 14 µM (≈ 20 µg/mL); in test [16], 5.8 µM (≈ 8.29 µg/mL); in [17], 5.8 µM (≈ 8.29 µg/mL); in the test with Pasteurella multocida it was 14 µM (≈ 20 µg/mL); in the test on Klebsiella pneumoniae, 10.5 µM (≈ 15 µg/mL); in the test with Staphylococcus aureus it was greater than 14 µM. Besides, the MIC worked out at 14 µM (≈ 20 µg/mL) with Aspergillus fumigatus; 14 µM (≈ 20 µg/mL) in test [18]; 14 µM (≈ 20 µg/mL) against Bibersteinia trehalosi; 14 µM (≈ 20 µg/mL) in test [19]; 11.7 µM (≈ 16.7 µg/mL) in test [20].
As for `CC(=O)N[C@@H](CCCN=C(N)N)C(=O)N[C@@H](Cc1c[nH]c2ccccc12)C(=O)N[C@@H](CCCN=C(N)N)C(=O)N[C@@H](Cc1ccccc1)C(=O)N[C@@H](Cc1c[nH]c2ccccc12)C(=O)N[C@@H](CCCN=C(N)N)C(N)=O` [RWRFWR], the MIC in the test with Bacillus subtilis PY22 was 31.3 µM (≈ 32.8 µg/mL); in test [21], no less than 125 µM.
Turning to `CC[C@H](C)[C@H](NC(=O)[C@@H]1CSSC[C@H](NC(=O)[C@H](CCCCN)NC(=O)[C@@H](N)[C@@H](C)O)C(=O)N[C@@H](Cc2ccccc2)C(=O)N[C@@H](CCC(N)=O)C(=O)N[C@@H](Cc2c[nH]c3ccccc23)C(=O)N[C@@H](CCC(N)=O)C(=O)N[C@@H](CCCN=C(N)N)C(=O)N[C@@H](CC(N)=O)C(=O)N[C@@H](CCSC)C(=O)N[C@@H](CCCN=C(N)N)C(=O)N[C@@H](CCCCN)C(=O)N[C@@H](C(C)C)C(=O)N[C@@H](CCCN=C(N)N)C(=O)NCC(=O)N2CCC[C@H]2C(=O)N2CCC[C@H]2C(=O)N[C@@H](C(C)C)C(=O)N[C@@H](CO)C(=O)N1)C(=O)N[C@@H](CCCCN)C(=O)N[C@@H](CCCN=C(N)N)C(=O)N[C@@H](CC(=O)O)C(=O)N[C@@H](CO)C(=O)O` [TKCFQWQRNMRKVRGPPVSCIKRDS], the figures for the MIC in test [22], in test [5] and in test [23] were no less than 33.1 µM, greater than 128 µM and 16.5 µM (≈ 50 µg/mL), respectively.
Regarding `CC(C)C[C@H](NC(=O)[C@H](C)NC(=O)[C@H](CC(C)C)NC(=O)[C@H](C)NC(=O)[C@H](CC(C)C)NC(=O)[C@H](CCCCN)NC(=O)[C@H](C)NC(=O)[C@H](CC(C)C)NC(=O)[C@H](CCCCN)NC(=O)[C@H](CCCCN)NC(=O)[C@H](C)NC(=O)[C@H](CC(C)C)NC(=O)[C@H](CCCCN)NC(=O)[C@H](C)NC(=O)[C@H](CC(C)C)NC(=O)[C@H](CCCCN)NC(=O)[C@H](CCCCN)NC(=O)[C@H](C)NC(=O)[C@@H](N)C(C)C)C(N)=O` [VAKKLAKLAKKLAKLALAL], the MIC in test [24] is 4.02 µM (≈ 8 µg/mL); in test [25], 4.02 µM (≈ 8 µg/mL); in test [26], no less than 32.1 µM; against Candida albicans, 8.03 µM (≈ 16 µg/mL); in test [27], no less than 32.1 µM; with Pseudomonas aeruginosa it was 4.02 µM and 5.68 µM. Moreover, the minimum inhibitory concentration (MIC) with Staphylococcus aureus is 16.1 µM (≈ 32 µg/mL); in test [18], 16.1 µM (≈ 32 µg/mL); in test [28], 4.02 µM (≈ 8 µg/mL); in the test on Escherichia coli UB1005 it was no less than 32.1 µM; in test [29], 8.03 µM (≈ 16 µg/mL); in the test on Pseudomonas fluorescens it was 4.02 µM (≈ 8 µg/mL). The figures for the MIC (in [30]; in the test on Ralstonia pickettii; in [31]) were 4.02 µM (≈ 8 µg/mL), 4.02 µM (≈ 8 µg/mL) and 2.01 µM (≈ 4 µg/mL), respectively.
